In patent US20070281857A1, “FORMIC ACID AS AN HERBICIDE” (MARRONE ORGANIC INNOVATIONS, priority 2006, published 2007):
Read-outs that look alike come from different tables or passages of the source.

Tests used:
[1] = tested on: Seedlings of Lactuca sativa (lettuce)
Procedure: A high-throughput 96-well assay was used to test the efficacy of formic acid as a post-emergence, non-selective herbicide. Seedlings of Lactuca sativa (lettuce) were grown in 96-well plates under continuous light. Formic acid was added on the seedlings at a 5x-dilution series from 20% to 0%, and the minimum concentration needed for killing the seedling was recorded the next day.

[2] = tested on: Poa annua (annual bluegrass); conditions: one week, relative to control
Procedure: (§1) To further test the inhibitory effect of formic acid on germinating seeds, pots with 6-cm diameter were filled with 60 mL of silty clay loam soil passed through a 2-mm sieve, and five (5) seeds of either Taraxacum officinale (dandelion, representing a broadleaved weed) or Poa annua (annual bluegrass, representing a grass weed) were planted on the top. A solid form of the composition containing corn gluten meal granules (1-2 mm diameter) soaked in 0%, 5%, 10% or 20% formic acid solution and dried were placed on the top of the soil at rates 0.1, 0.25, 0.5 and 1.0 g/pot. The pots were kept at optimum water content under growth lights with a 12-h light/dark period at room temperature, and the number of germinated seeds was counted after one week.

[3] = tested on: Taraxacum officinale (dandelion); conditions: one week, relative to control
Procedure: as §1

Lactuca sativa (lettuce) = conditions: for germination rate potting mix clay / germination rate soil (silty clay loam) clay / germination rate potting mix corn starch / germination rate soil (silty clay loam) corn starch / germination rate potting mix sand / germination rate soil (silty clay loam) sand: 7 days, relative to untreated control
Procedure: To test different carriers for formic acid, corn starch (powder), clay (granular, >2 mm diameter) and sand (small grain) were saturated with formic acid solutions (1, 3, and 5%) and dried at room temperature. Dry product (7.5 mL) was mixed with 60 mL of either potting mix or soil, and the mixture was placed in a small pot. Five (5) seeds of Lactuca sativa (lettuce) were planted on the top of each pot, and the seeds were covered with sand. The pots were incubated at room temperature under continuous light for 7 days, after which the number of seeds germinated in each pot was recorded and presented as a germination rate relative to the untreated control.

[4] = 5% formic acid in corn gluten meal granules 1-2 mm, 0.1 g/pot
[5] = 5% formic acid in corn gluten meal granules 1-2 mm, 0.25 g/pot
[6] = 5% formic acid in corn gluten meal granules 1-2 mm, 0.5 g/pot
[7] = 5% formic acid in corn gluten meal granules 1-2 mm, 1 g/pot
[8] = 10% formic acid in corn gluten meal granules 1-2 mm, 0.1 g/pot
[9] = 10% formic acid in corn gluten meal granules 1-2 mm, 0.25 g/pot
[10] = 10% formic acid in corn gluten meal granules 1-2 mm, 0.5 g/pot
[11] = 10% formic acid in corn gluten meal granules 1-2 mm, 1 g/pot
[12] = 20% formic acid in corn gluten meal granules 1-2 mm, 0.1 g/pot
[13] = 20% formic acid in corn gluten meal granules 1-2 mm, 0.25 g/pot
[14] = 20% formic acid in corn gluten meal granules 1-2 mm, 0.5 g/pot
[15] = 20% formic acid in corn gluten meal granules 1-2 mm, 1 g/pot
[16] = 20% formic acid in corn gluten meal granules 1-2 mm, 1 g/pot, listed as formic acid

Structure (SMILES): O=CO [Formic acid]
- minimum concentration needed for killing the seedling ([1]; 5x-dilution series from 20% to 0%, recorded the next day): 0.8%
- effect on lettuce seedling ([1]; formic acid 0.16%, next day): not harmful for the plant
- germination rate (%) annual bluegrass [2, 4]: 100%
- germination rate (%) annual bluegrass [2, 5]: 82%
- germination rate (%) annual bluegrass [2, 6]: 82%
- germination rate (%) annual bluegrass [2, 7]: 82%
- germination rate (%) annual bluegrass [2, 8]: 100%
- germination rate (%) annual bluegrass [2, 9]: 100%
- germination rate (%) annual bluegrass [2, 10]: 54%
- germination rate (%) annual bluegrass [2, 11]: 54%
- germination rate (%) annual bluegrass [2, 12]: 100%
- germination rate (%) annual bluegrass [2, 13]: 54%
- germination rate (%) annual bluegrass [2, 14]: 27%
- germination rate (%) annual bluegrass [2, 15]: 0%
- germination rate (%) annual bluegrass [2, 16]: inhibited the germination
- germination rate (%) dandelion [3, 4]: 100%
- germination rate (%) dandelion [3, 5]: 50%
- germination rate (%) dandelion [3, 6]: 0%
- germination rate (%) dandelion [3, 7]: 0%
- germination rate (%) dandelion [3, 8]: 0%
- germination rate (%) dandelion [3, 9]: 0%
- germination rate (%) dandelion [3, 10]: 0%
- germination rate (%) dandelion [3, 11]: 100%
- germination rate (%) dandelion [3, 12]: 0%
- germination rate (%) dandelion [3, 13]: 0%
- germination rate (%) dandelion [3, 14]: 0%
- germination rate (%) dandelion [3, 15]: 0%
- germination rate (%) dandelion [3, 16]: inhibited the germination
- germination rate potting mix clay (Lactuca sativa (lettuce); 1% formic acid on clay): 100
- germination rate soil (silty clay loam) clay (Lactuca sativa (lettuce); 1% formic acid on clay): 100
- germination rate potting mix corn starch (Lactuca sativa (lettuce); 1% formic acid on corn starch): 100
- germination rate soil (silty clay loam) corn starch (Lactuca sativa (lettuce); 1% formic acid on corn starch): 100
- germination rate potting mix sand (Lactuca sativa (lettuce); 1% formic acid on sand): 100
- germination rate soil (silty clay loam) sand (Lactuca sativa (lettuce); 1% formic acid on sand): 100
- germination rate potting mix clay (Lactuca sativa (lettuce); 3% formic acid on clay): 80
- germination rate soil (silty clay loam) clay (Lactuca sativa (lettuce); 3% formic acid on clay): 100
- germination rate potting mix corn starch (Lactuca sativa (lettuce); 3% formic acid on corn starch): 100
- germination rate soil (silty clay loam) corn starch (Lactuca sativa (lettuce); 3% formic acid on corn starch): 75
- germination rate potting mix sand (Lactuca sativa (lettuce); 3% formic acid on sand): 80
- germination rate soil (silty clay loam) sand (Lactuca sativa (lettuce); 3% formic acid on sand): 100
- control of germination of lettuce, comparison of tested products (Lactuca sativa (lettuce); 5% formic acid imbedded in clay granules): best control of germination
- germination rate potting mix clay (Lactuca sativa (lettuce); 5% formic acid on clay): 60
- germination rate soil (silty clay loam) clay (Lactuca sativa (lettuce); 5% formic acid on clay): 50
- germination rate potting mix corn starch (Lactuca sativa (lettuce); 5% formic acid on corn starch): 100
- germination rate soil (silty clay loam) corn starch (Lactuca sativa (lettuce); 5% formic acid on corn starch): 100
- germination rate potting mix sand (Lactuca sativa (lettuce); 5% formic acid on sand): 20
- germination rate soil (silty clay loam) sand (Lactuca sativa (lettuce); 5% formic acid on sand): 100
